Measured values from the NIST ThermoML archive (doi:10.1016/j.fluid.2007.06.019).
“And” between values parts separate entries of the source, which are not always exact repeats. Equal values may be shown once.

Conditions: Liquid, Alternating current cell with electrodes

CCCCCCCC[n+]1ccn(C)c1.F[B-](F)(F)F [1-methyl-3-octylimidazolium tetrafluoroborate]
Conditions	electrical conductivity
273.23 K, 101.33 kPa	0.00961 S/m
273.37 K, 101.33 kPa	0.00973 S/m and 0.00997 S/m
278.15 K, 101.33 kPa	0.0144 S/m and 0.0148 S/m
283.15 K, 101.33 kPa	0.0211 S/m and 0.0218 S/m and 0.0212 S/m
288.15 K, 101.33 kPa	0.0303 S/m and 0.0305 S/m
288.16 K, 101.33 kPa	0.0312 S/m
293.15 K, 101.33 kPa	0.0435 S/m and 0.0423 S/m
293.16 K, 101.33 kPa	0.0427 S/m
298.15 K, 100 kPa	0.0587 S/m
298.15 K, 101.33 kPa	0.0584 S/m [middle of 5 runs]
298.15 K, 24500 kPa	0.0441 S/m
298.15 K, 49500 kPa	0.0333 S/m
298.15 K, 73500 kPa	0.0257 S/m
298.15 K, 98400 kPa	0.0197 S/m
298.15 K, 122900 kPa	0.0152 S/m
298.15 K, 147100 kPa	0.012 S/m
298.15 K, 171600 kPa	0.00941 S/m
298.15 K, 196100 kPa	0.00742 S/m
298.16 K, 101.33 kPa	0.058 S/m
303.15 K, 101.33 kPa	0.076 S/m and 0.0794 S/m and 0.0775 S/m
308.15 K, 101.33 kPa	0.0992 S/m and 0.104 S/m and 0.102 S/m
313.15 K, 101.33 kPa	0.127 S/m and 0.131 S/m and 0.132 S/m
318.15 K, 101.33 kPa	0.16 S/m and 0.165 S/m and 0.167 S/m
323.11 K, 101.33 kPa	0.198 S/m and 0.205 S/m
323.13 K, 101.33 kPa	0.2 S/m
323.15 K, 100 kPa	0.203 S/m
323.15 K, 24500 kPa	0.162 S/m
323.15 K, 49300 kPa	0.13 S/m
323.15 K, 73500 kPa	0.106 S/m
323.15 K, 98100 kPa	0.0853 S/m
323.15 K, 122600 kPa	0.0695 S/m
323.15 K, 147600 kPa	0.0567 S/m
323.15 K, 171600 kPa	0.0468 S/m
323.15 K, 196100 kPa	0.0386 S/m
328.15 K, 101.33 kPa	0.244 S/m and 0.252 S/m
328.19 K, 101.33 kPa	0.246 S/m
333.11 K, 101.33 kPa	0.304 S/m
333.12 K, 101.33 kPa	0.294 S/m
333.16 K, 101.33 kPa	0.298 S/m
338.12 K, 101.33 kPa	0.355 S/m
338.2 K, 101.33 kPa	0.353 S/m and 0.364 S/m
343.16 K, 101.33 kPa	0.42 S/m
343.2 K, 101.33 kPa	0.416 S/m and 0.43 S/m
348.15 K, 100 kPa	0.486 S/m
348.15 K, 24500 kPa	0.406 S/m
348.15 K, 49000 kPa	0.339 S/m
348.15 K, 73500 kPa	0.287 S/m
348.15 K, 98400 kPa	0.242 S/m
348.15 K, 122600 kPa	0.206 S/m
348.15 K, 147100 kPa	0.175 S/m
348.15 K, 171600 kPa	0.149 S/m
348.15 K, 196100 kPa	0.128 S/m
348.16 K, 101.33 kPa	0.485 S/m
348.17 K, 101.33 kPa	0.502 S/m
348.24 K, 101.33 kPa	0.494 S/m
353.15 K, 101.33 kPa	0.561 S/m and 0.581 S/m
353.21 K, 101.33 kPa	0.572 S/m

CCCCCCCC[n+]1ccn(C)c1.F[P-](F)(F)(F)(F)F [1-octyl-3-methylimidazolium hexafluorophosphate]
Conditions	electrical conductivity
273.2 K, 101.33 kPa	0.00325 S/m
273.22 K, 101.33 kPa	0.00331 S/m
278.15 K, 101.33 kPa	0.0053 S/m and 0.0052 S/m
283.15 K, 101.33 kPa	0.00823 S/m and 0.00822 S/m and 0.00807 S/m
288.15 K, 101.33 kPa	0.0121 S/m
288.16 K, 101.33 kPa	0.0124 S/m
293.15 K, 101.33 kPa	0.0181 S/m and 0.0182 S/m and 0.0177 S/m
298.15 K, 100 kPa	0.0263 S/m
298.15 K, 101.33 kPa	0.0257 S/m [middle of 4 runs]
298.15 K, 19600 kPa	0.0202 S/m
298.15 K, 39200 kPa	0.0154 S/m
298.15 K, 49500 kPa	0.0134 S/m
298.15 K, 59100 kPa	0.0117 S/m
298.15 K, 78500 kPa	0.00918 S/m
298.15 K, 98100 kPa	0.00712 S/m
303.15 K, 101.33 kPa	0.036 S/m and 0.0353 S/m and 0.0358 S/m
308.15 K, 101.33 kPa	0.0479 S/m and 0.048 S/m
308.16 K, 101.33 kPa	0.0493 S/m and 0.0489 S/m
313.15 K, 101.33 kPa	0.0655 S/m and 0.0653 S/m
313.16 K, 101.33 kPa	0.0659 S/m and 0.0654 S/m
318.15 K, 101.33 kPa	0.0863 S/m [middle of 4 runs]
323.11 K, 101.33 kPa	0.108 S/m
323.13 K, 101.33 kPa	0.11 S/m
323.15 K, 100 kPa	0.107 S/m
323.15 K, 101.33 kPa	0.111 S/m
323.15 K, 24200 kPa	0.0814 S/m
323.15 K, 49000 kPa	0.0625 S/m
323.15 K, 73500 kPa	0.0483 S/m
323.15 K, 98100 kPa	0.0375 S/m
323.15 K, 122600 kPa	0.0292 S/m
323.15 K, 147100 kPa	0.0229 S/m
323.15 K, 171300 kPa	0.0181 S/m
323.15 K, 196100 kPa	0.0143 S/m
328.11 K, 101.33 kPa	0.142 S/m
328.12 K, 101.33 kPa	0.141 S/m
328.13 K, 101.33 kPa	0.136 S/m and 0.137 S/m
333.11 K, 101.33 kPa	0.17 S/m
333.19 K, 101.33 kPa	0.173 S/m
338.18 K, 101.33 kPa	0.209 S/m and 0.21 S/m
343.16 K, 101.33 kPa	0.254 S/m
343.17 K, 101.33 kPa	0.253 S/m
348.15 K, 100 kPa	0.29 S/m
348.15 K, 24500 kPa	0.233 S/m
348.15 K, 49300 kPa	0.188 S/m
348.15 K, 73500 kPa	0.152 S/m
348.15 K, 98100 kPa	0.124 S/m
348.15 K, 122600 kPa	0.101 S/m
348.15 K, 147100 kPa	0.083 S/m
348.15 K, 171600 kPa	0.0681 S/m
348.15 K, 195800 kPa	0.0562 S/m
348.17 K, 101.33 kPa	0.304 S/m
348.18 K, 101.33 kPa	0.303 S/m
353.17 K, 101.33 kPa	0.358 S/m and 0.36 S/m
